Reference: EP4585599A1, “NITROGEN-CONTAINING FUSED RING COMPOUND, INTERMEDIATE THEREOF, PREPARATION METHOD THEREFOR AND USE THEREOF” (Hangzhou Synrx Therapeutics Biomedical Technology Co., Ltd., priority 2022, dated 2024)
Where a name gives a salt, the structure may show the parent alone. Read-outs that look alike come from different tables or passages of the source.

Experiments:
cells = settings: Homo sapiens, DLD-1, 240 h
[1] = molecular target: T1, helicase domain of the Pol θ protein (Homo sapiens, UniProt O75417); experiment: Biochemical Activity Assay (ADP Glo Assay) of Pol θ inhibitor, ATPase activity
T1 construct: The helicase domain of the Pol θ protein was purified from insect protein expression system; made in house; host or cells: insect protein expression system
T1 sequence (O75417 102-554 limits assumed): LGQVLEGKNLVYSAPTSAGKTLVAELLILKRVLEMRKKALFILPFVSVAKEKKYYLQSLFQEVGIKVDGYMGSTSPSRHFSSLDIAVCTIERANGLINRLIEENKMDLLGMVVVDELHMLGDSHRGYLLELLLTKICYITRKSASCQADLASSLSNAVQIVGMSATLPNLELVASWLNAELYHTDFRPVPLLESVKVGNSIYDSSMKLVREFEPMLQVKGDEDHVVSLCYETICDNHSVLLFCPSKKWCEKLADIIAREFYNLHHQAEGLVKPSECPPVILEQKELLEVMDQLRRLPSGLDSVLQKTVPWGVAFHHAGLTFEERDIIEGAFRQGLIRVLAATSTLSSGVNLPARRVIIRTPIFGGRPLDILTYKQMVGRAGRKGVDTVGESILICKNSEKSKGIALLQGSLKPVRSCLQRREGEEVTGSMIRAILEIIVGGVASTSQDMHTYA

[2] = read-out: Cell viability assay IC50 (nM)
[3] = read-out: Cell viability assay IC50 (nM), CTG assay, CellTiter Glo, read on Day 10, cell line not given
[4] = ADP-Glo assay, ATPase activity of Pol θ helicase domain, ssDNA substrate, read-out: Biochemical assay IC50
[5] = read-out: Cell viability assay IC50 (nM), CTG on Day 10, cell line not given (method: DLD1 and DLD1^-/- cells)
[6] = ADP-Glo, ssDNA substrate, 60 min at room temperature, read-out: Biochemical assay IC50

| Compound | IC50 [1, 4] | IC50 [1, 6] | IC50 (cells; [2]) | IC50 ([1]; Biochemical assay IC50 (nM)) | IC50 (cells; [3]) | IC50 (cells; [5]) |
| --- | --- | --- | --- | --- | --- | --- |
| COc1cnc(Cl)cc1-c1cc(C)ncc1C(=O)Nc1nc2cnc(-c3c(C)cnn3CCN(C)C)cc2s1 [Example 219, 2'-chloro-N-(6-(1-(2-(dimethylamino)ethyl)-4-methyl-1H-parazol-5-yl)thiazolo[4,5-c]pyridin-2-yl)-5'-methoxy-6-methyl-[4.4'-bipyridine]-3-carboxamide trifluoroacetate] | – | – | 63.1 nM | 3.31 nM | – | – |
| COc1cnc(Cl)cc1-c1cc(C)ncc1C(=O)Nc1nc2cnc(-c3cncn3C)cc2s1 [Example 171] | 4.93 nM | – | – | – | 13.1 nM | – |
| [2H]C([2H])([2H])c1cnn(C)c1-c1cc2sc(NC(=O)c3cnc(C)cc3-c3cc(Cl)ncc3OC)nc2cn1 [Example 176, 2'-chloro-5'-methoxy-6-methyl-N-(6-(1-methyl-4-(methyl-d3)-1H-pyrazol-5-yl)thiazolo [4,5-c]pyridin-2-yl)-[4,4'-bipyridine]-3-carboxamide] | 4.64 nM | – | – | – | 4.29 nM | – |
| COc1cnc(Cl)cc1-c1cc(C)ncc1C(=O)Nc1nc2cc3c(cc2s1)C(=O)N(C)CCC3 [Example 225, 2'-chloro-5'-methoxy-6-methyl-N-(6-methyl-5-oxo-6,7,8,9-tetrahydro-5H-thiazolo[4',5': 4,5]benzo[1,2-c]aza-2-yl)-[4,4'-bipyridine]-3-carboxamide] | – | – | 56.2 nM | 21.1 nM | – | – |
| COc1cccc(F)c1-c1cc(C)ncc1C(=O)Nc1nc2ccc([C@H]3CC[C@@H](O)CC3)nc2s1 [Example 31] | 66.4 nM | 50 to 200 nM | > 1000 nM | – | – | – |
| COc1cnc(Cl)cc1-c1cc(C)ncc1C(=O)Nc1nc2ncc(N3CC[C@@H](O)[C@H](F)C3)cc2s1 [Example 101] | 3.78 nM | < 50 nM | – | – | 389 nM | 100 to 500 nM |
| COc1cnc(Cl)cc1-c1cc(C)ncc1C(=O)Nc1nc2cnc(-c3ccc(S(F)(F)(F)(F)F)cc3)cc2s1 [Example 188] | 36.7 nM | – | – | – | < 1.52 nM | – |
| CCP(=O)(CC)c1ccc(-c2cnc3nc(NC(=O)c4cnc(C)cc4-c4cc(Cl)ncc4OC)sc3c2)cc1 [Example 186] | – | – | 1520 nM | 5.58 nM | – | – |
| COc1cnc(Cl)cc1-c1cc(C)ncc1C(=O)Nc1nc2ccc(-c3c(C)cnn3C)c(F)c2s1 [Example 151] | 8.57 nM | – | – | – | 3.98 nM | – |
| COc1cnc(Cl)cc1-c1cc(C)ncc1C(=O)Nc1nc2cc(F)c(-c3ccc(P(C)(C)=O)cc3)cc2s1 [Example 85] | 1.81 nM | < 50 nM | – | – | 44.7 nM | < 100 nM |
| COc1cnc(Cl)cc1-c1cc(C)ncc1C(=O)Nc1nc2cnc(-c3[nH]ncc3C)cc2s1 [Example 161] | 3.41 nM | – | – | – | 121 nM | – |
| COc1cnc(Cl)cc1-c1cc(C)ncc1C(=O)Nc1nc2ncc(N3CCC(NC(=O)C4(C)CC4)CC3)cc2s1 [Example 74] | 6.44 nM | < 50 nM | – | – | 383 nM | 100 to 500 nM |
| COc1cnc(Cl)cc1-c1cc(C)ncc1C(=O)Nc1nc2ncc(C3=CCC4(CC3)CC(O)C4)cc2s1 (centres unmarked) [Example 77] | 3.94 nM | < 50 nM | – | – | 7.36 nM | < 100 nM |
| COc1cnc(Cl)cc1-c1cc(C)ncc1C(=O)Nc1nc2cnc(-c3c(C#N)cnn3C)cc2s1 [Example 169] | 8.84 nM | – | – | – | 89.1 nM | – |
| COc1cnc(Cl)cc1-c1cc(C)ncc1C(=O)Nc1nc2ccc(-c3c(C)nnn3C)cc2s1 [Example 222, 2'-chloro-N-(6-(1,4-dimethyl-1H-1,2,3-triazol-5-yl)benzo[d]lthiazol-2-yl)-5'-methoxy-6-methyl-[4.4'-bipyridine]-3-carboxamide] | – | – | 9.62 nM | 4.36 nM | – | – |
| COc1cnc(Cl)cc1-c1cc(C)ncc1C(=O)Nc1nc2ncc(N3CCC(O)C(C)C3)cc2s1 (centres unmarked) [Example 67] | 6.18 nM | < 50 nM | – | – | 46.4 nM | < 100 nM |
| COc1cnc(Cl)cc1-c1cc(C)ncc1C(=O)Nc1nc2ncc(N3CCC(NC(C)=O)CC3)cc2s1 [Example 57, N-(6-(4-acetaminopiperidin-1-yl)thiazolo[4,5-b]pyridin-2-yl)-2'-chloro-5'-methoxy-6-me thyl-[4,4'-bipyridine]-3-carboxamide] | 2.51 nM | < 50 nM | – | – | 126 nM | 100 to 500 nM |

More lines, main results first:

| IC50 [1, 4] | IC50 [1, 6] | Compound | IC50 (cells; [2]) | IC50 ([1]; Biochemical assay IC50 (nM)) | IC50 (cells; [3]) | IC50 (cells; [5]) |
| --- | --- | --- | --- | --- | --- | --- |
| 2.89 nM | < 50 nM | COc1cnc(Cl)cc1-c1cc(C)ncc1C(=O)Nc1nc2c(F)cc(C3=CCC(O)CC3)cc2s1 (centres unmarked) [Example 13] | – | – | 5.84 nM | < 100 nM |
| 8.06 nM | – | CCP(=O)(CC)c1ccc(-c2cc3sc(NC(=O)c4cnc(C)cc4-c4cc(Cl)ncc4OC)nc3cc2F)cc1 [Example 189] | – | – | 12.9 nM | – |
| 9.89 nM | < 50 nM | COc1cnc(Cl)cc1-c1cc(C)ncc1C(=O)Nc1nc2ncc(N3CCC(CO)C3)cc2s1 (centres unmarked) [Example 60] | – | – | 501 nM | 100 to 500 nM |
| 15.8 nM | – | COc1cnc(Cl)cc1-c1cc(C)ncc1C(=O)Nc1nc2cnc(N3CC[C@@H](O)C[C@@H]3C)nc2s1 [Example 140] | – | – | 68.1 nM | – |
| 4.02 nM | – | COc1cnc(Cl)cc1-c1cc(C)ncc1C(=O)Nc1nc2ncc(N3CCC(O)C(C)(C)C3)cc2s1 (centres unmarked) [Example 118] | – | – | 23 nM | – |
| 15.2 nM | – | COc1cnc(Cl)cc1-c1cc(C)ncc1C(=O)Nc1nc2ncc(C3=CCC4(CC3)CN(C(C)=O)C4)cc2s1 [Example 184] | – | – | 482 nM | – |
| 5.58 nM | < 50 nM | COc1cnc(Cl)cc1-c1cc(C)ncc1C(=O)Nc1nc2ncc(NS(C)(=O)=O)cc2s1 [Example 63] | – | – | 1710 nM | > 1000 nM |
| 3.02 nM | – | COc1cnc(Cl)cc1-c1cc(C)ncc1C(=O)Nc1nc2cnc(-c3c(C)nn(C)c3C(N)=O)cc2s1 [Example 152] | – | – | 17.2 nM | – |
| 2.29 nM | – | [2H]C([2H])([2H])n1ncc(C)c1-c1cc2sc(NC(=O)c3cnc(C)cc3-c3cc(Cl)ncc3OC)nc2cn1 [Example 149] | – | – | 3.54 nM | – |
| 196 nM | 50 to 200 nM | COc1cccc(F)c1-c1cc(C)ncc1C(=O)Nc1nc2ccc([C@H]3CC[C@H](O)CC3)nc2s1 [Example 32] | – | – | 7080 nM | > 1000 nM |
| 3.55 nM | < 50 nM | COc1cnc(Cl)cc1-c1cc(C)ncc1C(=O)Nc1nc2ccc(C3=CCC(O)CC3)cc2s1 (centres unmarked) [Example 15] | – | – | 14.7 nM | < 100 nM |
| 4.93 nM | – | COc1cnc(Cl)cc1-c1cc(C)ncc1C(=O)Nc1nc2ccc(-c3c(C)cnn3C)cc2s1 [Example 148] | – | – | 4.13 nM | – |
| 2.67 nM | < 50 nM | COc1cnc(Cl)cc1-c1cc(C)ncc1C(=O)Nc1nc2c(F)cc(N3CCC(O)CC3)cc2s1 [Example 103] | – | – | 22.4 nM | < 100 nM |
| 1.88 nM | < 50 nM | COc1cnc(Cl)cc1-c1cc(C)ncc1C(=O)Nc1nc2cnc(C3=CCC(O)CC3)nc2s1 (centres unmarked) [Example 91, 2'-chloro-N-(5-(4-hydroxycyclohex-1-en-1-yl)thiazolo[5,4-d]pyrimidin-2-yl)-5'-methoxy-6-methyl-[4,4'-bipyridine]-3-carboxamide] | – | – | 11.7 nM | < 100 nM |
| 222 nM | 200 to 500 nM | COc1cnc(Cl)cc1-c1cc(C)ncc1C(=O)Nc1nc2ccc(C3=CCC(O)CC3)nc2[nH]1 (centres unmarked) [Example 56, 2'-chloro-N-(5-(4-hydroxycyclohex-1-en-1-yl)-3H-imidazo[4,5-b]pyridin-2-yl)-5'-methox y-6-methyl-[4,4'-bipyridine]-3-carboxamide] | – | – | 9620 nM | > 1000 nM |
| 6.91 nM | – | Cc1cc(-c2cc(Cl)ncc2OC(F)F)c(C(=O)Nc2nc3ccc(N4CCC(O)CC4)nc3s2)cn1 [Example 130] | – | – | 11 nM | – |
| 3.63 nM | – | COc1cnc(C(F)F)cc1-c1cc(C)ncc1C(=O)Nc1nc2cnc(-c3c(C)nnn3C3CC3)cc2s1 [Example 213, N-(6-(1-cyclopropyl-4-methyl-1H-1,2,3-triazol-5-yl)thiazolo[4,5-c]pyridin-2-yl)-2'-(difluoromethyl)-5'-methoxy-6-methyl-[4,4'-bipyridine]-3-carboxamide] | – | – | 4.13 nM | – |
| 1.81 nM | < 50 nM | COc1cnc(Cl)cc1-c1cc(C)ncc1C(=O)Nc1nc2cc(F)c(C3=CCC(O)CC3)cc2s1 (centres unmarked) [Example 84] | – | – | 2.42 nM | < 100 nM |
| 7.28 nM | – | COc1cnc(Cl)cc1-c1cc(C)ncc1C(=O)Nc1nc2ncc(N(C)CCC(C)O)cc2s1 (centres unmarked) [Example 117] | – | – | 799 nM | – |
| 8.39 nM | < 50 nM | COc1cnc(Cl)cc1-c1cc(C)ncc1C(=O)Nc1nc2ncc(N3CCS(=O)(=O)CC3)cc2s1 [Example 50] | – | – | 541 nM | 500 to 1000 nM |
| 5.08 nM | – | COc1cnc(Cl)cc1-c1cc(C)ncc1C(=O)Nc1nc2cc(F)c(-c3ccc(P4(=O)CCCC4)cc3)cc2s1 [Example 190] | – | – | 3.28 nM | – |
| 6.99 nM | < 50 nM | COc1cnc(Cl)cc1-c1cc(C)ncc1C(=O)Nc1nc2ncc(-c3ccnc(N4CCN[C@H](C)C4)c3)cc2s1 [Example 105, (R)-2'-chloro-5'-methoxy-6-methyl-N-(6-(2-(3-methylpiperazin-1-yl)pyridin-4-yl)thiazolo[4,5-b]pyridin-2-yl)-[4,4'-bipyridine]-3-carboxamide] | – | – | 152 nM | 100 to 500 nM |
| 2.74 nM | < 50 nM | COc1cnc(Cl)cc1-c1cc(C)ncc1C(=O)Nc1nc2ncc(C3=CCOCC3)cc2s1 [Example 14] | – | – | 31.6 nM | < 100 nM |
| 2.36 nM | – | COc1cnc(Cl)cc1-c1cc(C)ncc1C(=O)Nc1nc2cnc(-c3nnc(C)o3)cc2s1 [Example 206] | – | – | 13.6 nM | – |
